In patent US11197888B2, “LHRH-platinum conjugates for treating reproductive cancers” (priority 2015, dated 2021) one finds tumor growth data, which are given here for 1 compound.

For the experiment, the system named is 4T1 tumors. In words: In-vivo analysis of impact on 4T1 tumor growth in Balb/c mice. More on the design: species or system female Balb/c mice. Conditions: 4T1 tumors in mammary fat pad, carboplatin 5 mg/kg/wk or molar-equivalent Pt-LHRH, IP, 2 weeks, vs control. As to the method: In this experiment at least one eleven week old female Balb/c mice were utilized. The animals were allowed to acclimate for 1 week before experimentation and were maintained on a 12 hours light and dark cycle, and fed standard rodent chow (Prolab ISOPRO RMH 3000 Irradiated Lab Diet; Purina Mills International). Animal protocols were approved by the committee on animal research care and use at Eastern Kentucky University. 4T1 tumors were grown in the right abdominal mammary fat pad of the mice for 7 days. After tumor initiation (˜100 mm3) the mice were administered Pt-LHRH (carboplatin molar-equivalent dosage) through IP injection and compared to those treated with carboplatin (5 mg/kg/wk), no treatment, and LHRH plus carboplatin (unbound) controls for 2 weeks. Tumor growth was monitored daily and tumor volumes (mm3) were calculated using the formula: (width) 2×length/2, where width is the smaller of the two measurements. At two weeks the mice were sacrificed and tumor volume and weight were measured.

For `N.N.O=C([O-])C1(C(=O)[O-])CCC1.[Pt+2]` [carboplatin], the tumor growth result is “no statistically significant reduction in tumor growth”.
